Data as given in article PMC4929710, “Specificity and mechanism of action of alpha-helical membrane-active peptides interacting with model and biological membranes by single-molecule force spectroscopy” (Scientific Reports, 2016).

What was measured:
[1] = Circular dichroism (CD) analysis; type: physicochemical; conditions: for α-Helix (%) 50% TFE / α-Helix (%) Benign: relative to molar ellipticity of A12L/A20L in 50% TFE; for [θ]222 Benign / [θ]222 50% TFE: CD, 25 °C; for [θ]222 Benign: benign buffer pH 7.0, 100 mM KCl, 50 mM KH2PO4/K2HPO4; for [θ]222 50% TFE: benign buffer:TFE 1:1 vol/vol; for α-Helix (%) Benign: benign buffer
Experimental: The secondary structures of the peptides were determined using a Jasco J-810 CD spectrometer (Jasco, Easton, MD) at 25 °C [12]. The benign buffer (pH 7.0, 100 mM KCl, 50 mM KH2PO4/K2HPO4) was used to simulate the hydrophilic environment and 50% 2,2,2-trifluoroethanol (TFE) (benign buffer: TFE = 1: 1, vol/vol) was used to simulate the hydrophobic environment. The mean residue molar ellipticities at 222 nm, [θ]222 (degree·cm^2·dmol^−1), were used to calculate the relative helical contents of MAPs[24].
CD spectroscopy illustrated the secondary structure of peptide analogs under benign environment and 50% TFE to mimic the hydrophobic conditions of cell membranes. CD results are shown in Supplementary Table S2 and Fig. S1. […] The helical content (%) of peptides in two groups relative to the molar ellipticity value of the peptide A12L/A20L in 50% TFE. In addition, except the peptide of V13E, the relative helicity of the peptides are in the same order of V13L>V13A>V13S>V13K and A12L/A20L>A20L>L6A>L6A/L17A in the benign and hydrophobic environments and also in the same order with the peptide hydrophobicity.

S. epidermidis ATCC12228 = type: cell-based; conditions: ATCC12228, 24 h
Experimental: (§1) Then, 10 μL of peptides was added. […] All assays were repeated in triplicate.

E. coli ATCC25922 = type: cell-based; conditions: ATCC25922, 24 h
Experimental: as §1

S. aureus ATCC25923 = type: cell-based; conditions: ATCC25923, 24 h
Experimental: as §1

[2] = tested on: gram-negative bacteria (P. aeruginosa and E. coli); type: cell-based
Experimental: as §1

P. aeruginosa ATCC27853 = type: cell-based; conditions: ATCC27853, 24 h
Experimental: as §1

SGC7901 cells = type: cell-based, human; conditions: 24 h
Experimental: (§2) The MTT cell proliferation assay was used to investigate the anticancer activity and cytotoxicity of MAPs against cancer cell lines (HeLa, A549, SGC-7901, and B16) and normal cells (3T3-L1), respectively. Cells (5 × 10^3) were seeded in 96-well plates and incubated overnight. The peptide samples were then added to cells with final concentrations ranging from 1 μM to 125 μM. After 24 h, 20 μL of 5 mg/mL MTT solution in PBS was added to the cells and treated for 4 h at 37 °C. The formazan crystals were dissolved by 150 μL of dimethyl sulfoxide (DMSO). Finally, the absorbance was determined at 492 nm. The results were expressed as IC50, representing the concentration at which cell viability was reduced by 50%. All assays were repeated in triplicate.

A549 cells = type: cell-based, human; conditions: 24 h
Experimental: as §2

HeLa cells = type: cell-based, human; conditions: 24 h
Experimental: as §2

3T3-L1 cells = type: cell-based, mouse; conditions: 24 h
Experimental: as §2

B16 cells = type: cell-based, mouse; conditions: 24 h
Experimental: as §2

[3] = tested on: PC/SM/PE/PS/Chol (4.35:4.35:1:0.3:1 w/w) LUVs; experiment: Tryptophan fluorescence with LUVs; type: binding; conditions: PC/SM/PE/PS/Chol (4.35:4.35:1:0.3:1 w/w) LUVs versus HEPES buffer, 25 °C
Description: (§3) In order to investigate the interaction between peptides and difference types of cell membranes, three different LUVs were used to mimic a prokaryotic cell membrane (PC/PG), a normal eukaryotic cell membrane (PC/Chol), and a cancer cell membrane (PC/SM/PE/PS/Chol). Tryptophan residue in the peptide sequence was used as a fluorescent probe to examine the interaction of peptides with model membranes. […] For example, in the PC/PG (7:3 w/w) anionic prokaryotic mimicking model membrane, peptides V13L and A12L/A20L had the strongest hydrophobicity with blue shift values of approximately 37 nm and 38 nm, respectively. Conversely, peptide V13E with a negative charge of glutamic acid residue, and peptide L6A/L17A with the lowest hydrophobicity had blue shift values of approximately 18 nm and 17 nm, respectively. […] In addition, within PC/SM/PE/PS/Chol (4.35:4.35:1:0.3:1 w/w) as a cancer-mimicking model membrane, the same results could be obtained in that peptide hydrophobicity correlates with anticancer activity and the blue shift values of peptides.
(§4) In accordance with previously described methods, LUVs were prepared with PC/PG (7:3 w/w), PC/Chol (8:1 w/w), and PC/SM/PE/PS/Chol (4.35:4.35:1:0.3:1 w/w) to mimic prokaryotic cell, […], membranes, respectively. Lipids using the freeze-thaw method as described previously, followed by extrusion through […] double-stacked nuclepore filters using an Mini-Extruder (Avanti Polar Lipids, Inc.)[11][27].
(§5) Three kinds of LUVs were prepared and cultured in HEPES buffer (pH 7.4, 10 mM HEPES, 150 mM NaCl) and the molar concentration was adjusted to 100 μM. A total of 14 μL of 100 μM MAPs was mixed with 686 μL of 100 μM liposomes at 25 °C for 10 min. A Shimadzu RF-5301PC, (excitation wavelength of […], emission wavelength of 300–450 nm) was used to measure the tryptophan fluorescence. Potassium iodide (KI) as a quencher was added to the previous reaction system for a final concentration of 0.02–0.08 M, respectively. The experimental data were plotted according to the Stern–Volmer equation F0/F = 1 + Ksv[Q], where F0 and F are the fluorescence intensity in the absence or presence of a quencher at concentration [Q], respectively, and Ksv is the Stern–Volmer quenching constant.

PC/PG (7:3 w/w) LUVs = experiment: Tryptophan fluorescence with LUVs; type: binding; conditions: PC/PG (7:3 w/w) LUVs versus HEPES buffer, 25 °C
Description: as §3, §4, §5

PC/Chol (8:1 w/w) LUVs = experiment: Tryptophan fluorescence with LUVs; type: binding; conditions: PC/Chol (8:1 w/w) LUVs versus HEPES buffer, 25 °C
Description: as §3, §4, §5

[4] = RP-HPLC retention time (peptide hydrophobicity); type: physicochemical; conditions: used as measure of peptide hydrophobicity
Experimental: All peptides were synthesized by solid-phase peptide synthesis using Fmoc (9-fluorenyl-methoxycar-bonyl) chemistry and rink amide 4-methylbenzhydrylamine resin (MBHA resin; 0.8 mmol/g), as described previously. The crude peptides were purified on a LC-6A preparative reversed-phase high performance liquid chromatography (RP-HPLC, Shimadzu, Kyoto, Japan) using a Zorbax 300 SB-C8 column (250 × 9.4 mm inner diameter, […] particle size, 300 Å pore size), as described previously. The purity of the peptides was characterized by analytical RP-HPLC, mass spectrometry, and amino acid analysis.

[5] = tested on: gram-positive bacteria (S. aureus and S. epidermidis); type: cell-based
Experimental: as §1

Row | Substance | α-Helix (%) 50% TFE [1] | [θ]222 Benign [1] | [θ]222 50% TFE [1] | α-Helix (%) Benign [1] | G+ MIC S. epidermidis ATCC12228 (S. epidermidis ATCC12228) | G− MIC E. coli ATCC25922 (E. coli ATCC25922) | G+ MIC S. aureus ATCC25923 (S. aureus ATCC25923) | G− MIC GM [2] | G− MIC P. aeruginosa ATCC27853 (P. aeruginosa ATCC27853) | IC50 (SGC7901 cells) | IC50 (A549 cells) | IC50 (HeLa cells) | IC50 (3T3-L1 cells) | IC50 (B16 cells) | PC/SM/PE/PS/Chol Blueshift [3] | PC/PG Blue shift (PC/PG (7:3 w/w) LUVs) | PC/Chol Blue shift (PC/Chol (8:1 w/w) LUVs) | tR (RP-HPLC retention time) [4] | G+ MIC GM [5]
1 | Ac-KWKSFAKTFKSAKKTVLHTALKAISS-NH2 [Peptide L6A] | 70.67% | −3836.18 degree·cm^2·dmol^−1 | −30626.20 degree·cm^2·dmol^−1 | 8.85% | 64 µM | 64 µM | >125 µM | 89.44 µM | 125 µM | 78.9 µM | 92.4 µM | 94.7 µM | 87.3 µM | 74.7 µM | 23 nm | 19 nm | 1 nm | 36.053 min | 
2 | Ac-KWKSFLKTFKSAAKTVLHTALKAISS-NH2 [Peptide V13A] | 79.68% | −6524.79 degree·cm^2·dmol^−1 | −34527.20 degree·cm^2·dmol^−1 | 15.06% | 2 µM | 4 µM | 8 µM | 5.66 µM | 8 µM | 2.33 µM | 6.83 µM | 5.52 µM | 6.79 µM | 3.62 µM |  | 34 nm | 4 nm | 47.337 min | 4 µM
3 | Ac-KWKSFLKTFKSASKTVLHTALKAISS-NH2 [Peptide V13S] | 71.30% | −4400.44 degree·cm^2·dmol^−1 | −30899.20 degree·cm^2·dmol^−1 | 10.15% | 4 µM | 8 µM | 8 µM | 8 µM | 8 µM | 4.27 µM | 12.1 µM | 12.2 µM | 17 µM | 5.61 µM |  | 27 nm | 3 nm | 43.038 min | 5.66 µM
